Here are results for 42 compounds from ChEMBL document CHEMBL1134928, “Synthesis and evaluation of potent pyrrolidine H(3) antagonists” (Bioorg Med Chem Lett, 2002).

The target of assay [1] is T1, Histamine H3 receptor (Rattus norvegicus, UniProt Q9QYN8). The assay is described as follows: Binding affinity against rat histamine H3 receptor.
In assay [2] the target is T2, Histamine H1 receptor (Homo sapiens, UniProt P35367). Nature of the assay: Binding affinity to the human Histamine H1 receptor.
The target of assay [3] is T3, Histamine H2 receptor (Homo sapiens, UniProt P25021). The assay is described as follows: Binding affinity to the human Histamine H2 receptor.
The target of assay [4] is T1, Histamine H3 receptor. Nature of the assay: Binding affinity towards rats Histamine type 3 (H3) receptor.
The target in assay [5] is T1, Histamine H3 receptor. Nature of the assay: Binding affinity towards rat Histamine H3 receptor (For compound 11).
The target of assay [6] is T2, Histamine H1 receptor. Nature of the assay: Binding affinity towards human Histamine H1 receptor (For compound 11).
In assay [7] the target is T3, Histamine H2 receptor. Nature of the assay: Binding affinity towards human Histamine H2 receptor (For compound 11).

Molecules are shown by their SMILES.

T1 sequence (Q9QYN8 whole entry): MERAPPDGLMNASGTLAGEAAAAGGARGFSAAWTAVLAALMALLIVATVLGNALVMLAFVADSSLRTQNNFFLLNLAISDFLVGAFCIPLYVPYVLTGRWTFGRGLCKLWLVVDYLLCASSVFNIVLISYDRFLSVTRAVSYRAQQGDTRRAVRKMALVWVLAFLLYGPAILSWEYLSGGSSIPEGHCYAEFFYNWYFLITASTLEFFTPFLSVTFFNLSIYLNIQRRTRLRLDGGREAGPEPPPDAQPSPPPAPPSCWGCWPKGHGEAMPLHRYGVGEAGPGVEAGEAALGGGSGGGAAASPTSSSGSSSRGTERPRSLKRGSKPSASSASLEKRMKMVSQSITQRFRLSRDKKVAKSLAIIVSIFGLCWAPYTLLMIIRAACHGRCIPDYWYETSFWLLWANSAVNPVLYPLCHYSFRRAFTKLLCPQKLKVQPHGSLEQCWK
T2 sequence (P35367 whole entry): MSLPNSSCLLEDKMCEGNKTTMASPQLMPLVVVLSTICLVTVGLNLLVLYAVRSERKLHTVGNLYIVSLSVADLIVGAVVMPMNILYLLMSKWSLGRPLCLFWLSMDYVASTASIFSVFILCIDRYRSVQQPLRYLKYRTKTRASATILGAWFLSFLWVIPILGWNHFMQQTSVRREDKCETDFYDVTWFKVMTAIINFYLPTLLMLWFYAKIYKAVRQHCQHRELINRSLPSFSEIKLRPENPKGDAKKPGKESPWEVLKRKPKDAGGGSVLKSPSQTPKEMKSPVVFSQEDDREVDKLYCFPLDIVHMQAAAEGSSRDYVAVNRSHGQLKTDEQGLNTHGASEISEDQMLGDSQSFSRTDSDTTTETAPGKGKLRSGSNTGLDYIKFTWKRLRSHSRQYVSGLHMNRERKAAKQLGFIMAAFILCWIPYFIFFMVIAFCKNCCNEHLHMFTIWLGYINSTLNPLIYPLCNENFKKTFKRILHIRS
T3 sequence (P25021 whole entry): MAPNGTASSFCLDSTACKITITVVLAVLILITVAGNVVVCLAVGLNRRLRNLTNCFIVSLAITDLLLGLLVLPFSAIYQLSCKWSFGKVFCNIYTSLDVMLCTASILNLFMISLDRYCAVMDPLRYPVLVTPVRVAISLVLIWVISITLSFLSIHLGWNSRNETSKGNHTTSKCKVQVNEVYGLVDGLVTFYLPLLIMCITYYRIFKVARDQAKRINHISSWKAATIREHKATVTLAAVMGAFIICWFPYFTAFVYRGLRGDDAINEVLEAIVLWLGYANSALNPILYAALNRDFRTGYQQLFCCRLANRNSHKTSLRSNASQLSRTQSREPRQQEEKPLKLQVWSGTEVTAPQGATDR

Consider `CC(C)(C)OC(=O)NCCC(=O)N1C[C@@H]2C[C@H]1CN2CCCOc1ccc(C(=O)C2CC2)cc1`, for which affinity in assay [1] was put at a Ki of 0.071 µM.

Take `N#Cc1ccccc1S(=O)(=O)N[C@H]1CCN(CCCOc2ccc(C(=O)C3CC3)cc2)C1`: the inhibitory constant (Ki) (as a rule, the dissociation constant of the complex between target and ligand, obtained from inhibition or displacement) was found to be 6.2 µM in assay [2], 0.71 µM in assay [3] and 0.011 µM in assay [1].

On to `Cc1cccc(S(=O)(=O)N[C@H]2CCN(CCCOc3ccc(C(=O)C4CC4)cc3)C2)c1`, for which the Ki amounted to 6.6 µM in assay [2], 1.8 µM in assay [3] and 0.0027 µM in assay [1].

For `CC(=O)c1ccc(OCCCN2CC[C@H](NC(=O)[C@@H](N)CO)C2)cc1`, the Ki in assay [2] turned out to be 43 µM; in assay [3], 22 µM; in assay [1], 0.151 µM.

For `CC(=O)c1ccc(OCCCN2CC[C@H](NS(=O)(=O)c3ccc(C#N)cc3)C2)cc1`, the Ki in assay [2] amounted to 14 µM; in assay [3], 2.3 µM; in assay [1], 0.006 µM.

For the compound `CC(C)(C)c1ccc(S(=O)(=O)N[C@H]2CCN(CCCOc3ccc(C(=O)C4CC4)cc3)C2)cc1`, the results for the inhibition constant (Ki) in assay [2], in assay [3] and in assay [1] were 2.3 µM, 0.73 µM and 0.0052 µM, respectively.

With `CCCCCC(=O)c1ccc(OCCCN2CCN(C(=O)OCC)CC2)cc1`, the Ki in assay [4] stood at 0.002 µM.

For `C[C@@H](NC(=O)N1C[C@@H]2C[C@H]1CN2CCCOc1ccc(C(=O)C2CC2)cc1)C(=O)O`, the inhibition constant Ki in assay [1] came to 0.413 µM.

Take `O=C(c1ccc(OCCCN2C[C@@H]3C[C@H]2CN3C(=O)c2ccco2)cc1)C1CC1`: the Ki in assay [1] was found to be 0.208 µM.

With `O=C(N[C@H]1CCN(CCCOc2ccc(C(=O)C3CC3)cc2)C1)c1csc(-c2cccnc2)n1`, the results for the inhibition constant (Ki) in assay [2], in assay [3] and in assay [1] were 37 µM, 4 µM and 0.05 µM, respectively.

In assay [1], `O=C(O)CCNC(=O)N1C[C@@H]2C[C@H]1CN2CCCOc1ccc(C(=O)C2CC2)cc1` yielded a Ki of 0.017 µM.

Compound `CCS(=O)(=O)N1C[C@@H]2C[C@H]1CN2CCCOc1ccc(C(=O)C2CC2)cc1` showed an inhibitory constant (Ki) in assay [1] of 0.12 µM.

Turning to `O=C(c1ccc(OCCCN2C[C@@H]3C[C@H]2CN3C(=O)c2ccccc2)cc1)C1CC1`, in assay [1], the Ki is 0.344 µM.

Regarding `O=C(c1ccc(OCCCN2CC[C@H](NS(=O)(=O)c3ccc(F)cc3)C2)cc1)C1CC1`, the Ki in assay [2] was 9.2 µM; in assay [3], 0.5 µM; in assay [1], 0.0035 µM.

In assay [1], `C[C@H](NC(=O)N1C[C@@H]2C[C@H]1CN2CCCOc1ccc(C(=O)C2CC2)cc1)C(=O)O` displayed a Ki of 0.232 µM.

For the compound `CC(=O)c1ccc(OCCCN2CC[C@H](NC(=O)[C@@H](C)NC(=O)OC(C)(C)C)C2)cc1`, the results for the Ki in assay [2], in assay [3] and in assay [1] were 56 µM, 40 µM and 0.307 µM, respectively.

Regarding `O=C(c1ccc(OCCCN2CC[C@H](NS(=O)(=O)c3cccc(Cl)c3)C2)cc1)C1CC1`, the values for the inhibitory constant (Ki) in assay [2], in assay [3] and in assay [1] were 3.6 µM, 0.7 µM and 0.003 µM, respectively.

For `Cc1ccccc1S(=O)(=O)N[C@H]1CCN(CCCOc2ccc(C(=O)C3CC3)cc2)C1`, the inhibitory constant (Ki) stood at 16 µM in assay [2], 2.2 µM in assay [3] and 0.011 µM in assay [1].

On to `Cc1ccc(S(=O)(=O)N[C@H]2CCN(CCCOc3ccc(C(=O)C4CC4)cc3)C2)cc1`, for which the Ki in assay [2] is 5.5 µM; in assay [3] it was 0.38 µM; in assay [1], 0.0042 µM.

Consider `O=C(c1ccc(OCCCN2CC[C@H](NS(=O)(=O)c3cccc(F)c3)C2)cc1)C1CC1`, for which the inhibition constant Ki in assay [2] amounted to 5.9 µM; in assay [3] it was 1.6 µM; in assay [1] it was 0.0016 µM.

Consider `O=C(c1ccc(OCCCN2CC[C@H](NS(=O)(=O)c3ccccc3)C2)cc1)C1CC1`, for which the inhibitory constant (Ki) in assay [2] is 9.1 µM; in assay [3] it was 1.2 µM; in assay [1], 0.003 µM.

Regarding `O=C(c1ccc(OCCCN2CC[C@H](NS(=O)(=O)c3ccc(Cl)cc3)C2)cc1)C1CC1`, the Ki in assay [2] was 2.5 µM; in assay [3], 0.29 µM; in assay [1], 0.0038 µM.

`CCc1ccc(S(=O)(=O)N[C@H]2CCN(CCCOc3ccc(C(=O)C4CC4)cc3)C2)cc1`: the Ki is 2.3 µM in assay [2], 0.33 µM in assay [3] and 0.0046 µM in assay [1].

Turning to `CC(=O)c1ccc(OCCCN2CC[C@H](NC(=O)[C@H](CO)NC(=O)OC(C)(C)C)C2)cc1`, the Ki was 75 µM in assay [2], 46 µM in assay [3] and 0.587 µM in assay [1].

Regarding `CC(=O)c1ccc(OCCCN2CC[C@H](NC(=O)c3cnccn3)C2)cc1`, the Ki in assay [2] is 10 µM; in assay [3], 5 µM; in assay [1] it was 0.202 µM.

`O=C(c1ccc(OCCCN2C[C@@H]3C[C@H]2CN3C(=O)c2ccccn2)cc1)C1CC1` showed a Ki in assay [1] of 0.191 µM.

Regarding `O=C(c1ccc(OCCCN2CC[C@H](NS(=O)(=O)c3ccc(Br)cc3)C2)cc1)C1CC1`, the inhibition constant (Ki) in assay [2] worked out at 1.5 µM; in assay [3], 0.29 µM; in assay [1], 0.005 µM.

As to `O=C(c1ccc(OCCCN2C[C@@H]3C[C@H]2CN3C(=O)C2CCCCC2)cc1)C1CC1`, in assay [1], the affinity corresponds to a Ki of 0.134 µM.

As for `N#Cc1cccc(S(=O)(=O)N[C@H]2CCN(CCCOc3ccc(C(=O)C4CC4)cc3)C2)c1`, the Ki was determined as 8.9 µM in assay [2], 0.9 µM in assay [3] and 0.0028 µM in assay [1].

As to `CC(=O)c1ccc(OCCCN2CC[C@H](NC(=O)c3ccc(C#N)cc3)C2)cc1`, the values for the Ki in assay [2], in assay [3] and in assay [1] were 13 µM, 6.1 µM and 0.04 µM, respectively.

`CC(=O)c1ccc(OCCCN2CC[C@H](NC(=O)[C@@H](CO)NC(=O)OC(C)(C)C)C2)cc1`: the Ki in assay [2] stood at 80 µM; in assay [3] it was 100 µM; in assay [1], 0.31 µM.

Turning to `COc1ccc(S(=O)(=O)N[C@H]2CCN(CCCOc3ccc(C(=O)C4CC4)cc3)C2)cc1`, the inhibitory constant (Ki) in assay [2] amounted to 4.4 µM; in assay [3], 1 µM; in assay [1] it was 0.0029 µM.

For the compound `CC(=O)c1ccc(OCCCN2CC[C@H](NC(=O)c3csc(-c4cccnc4)n3)C2)cc1`, the Ki turned out to be 11 µM in assay [2], 6.2 µM in assay [3] and 0.055 µM in assay [1].

In the case of `O=C(c1ccc(OCCCN2C[C@@H]3C[C@H]2CN3S(=O)(=O)c2ccccc2)cc1)C1CC1`, the affinity in assay [1], expressed as Ki, was 0.019 µM.

On to `CC(=O)c1ccc(OCCCN2CC[C@H](NC(=O)c3cccnc3)C2)cc1`, for which the Ki in assay [2] came to 7.4 µM; in assay [3], 3.5 µM.

Consider `N#Cc1ccc(S(=O)(=O)N[C@H]2CCN(CCCOc3ccc(C(=O)C4CC4)cc3)C2)cc1`, for which the values for the Ki in assay [2], in assay [3] and in assay [1] were 20 µM, 1.6 µM and 0.004 µM, respectively.

Turning to `CC(=O)c1ccc(OCCCN2CC[C@H](NC(=O)[C@H](C)NC(=O)OC(C)(C)C)C2)cc1`, the Ki was 60 µM in assay [2], 24 µM in assay [3] and 0.901 µM in assay [1].

Regarding `O=C(c1ccc(OCCCN2CC[C@H](NS(=O)(=O)c3ccccc3F)C2)cc1)C1CC1`, the inhibition constant Ki in assay [2] was 9.4 µM; in assay [3], 1.55 µM; in assay [1] it was 0.0027 µM.

For `CC(=O)c1ccc(OCCCN2CC[C@H](N)C2)cc1`, the inhibitory constant (Ki) in assay [2] was 90 µM; in assay [3], 50 µM; in assay [5] it was 0.676 µM; in assay [6], 100 µM; in assay [7], 31 µM.

For `O=C(c1ccc(OCCCN2CC[C@H](NS(=O)(=O)c3ccccc3Cl)C2)cc1)C1CC1`, the inhibitory constant (Ki) in assay [2] came out at 4.5 µM; in assay [3] it was 1 µM.

In the case of `Cn1cnc(S(=O)(=O)N[C@H]2CCN(CCCOc3ccc(C(=O)C4CC4)cc3)C2)c1`, the Ki was 91 µM in assay [2], 7.1 µM in assay [3] and 0.01 µM in assay [1].

On to `O=C(c1ccc(OCCCN2C[C@@H]3C[C@H]2CN3C(=O)c2ccc(F)cc2)cc1)C1CC1`, for which, in assay [1], the affinity, expressed as Ki, was 0.258 µM.
